Results published in patent US9980890B2, “Zinc amino acid halide mouthwashes” (Colgate-Palmolive Company, priority 2012, dated 2018).

Experiments:
[1] = Dilution experiment of ZLC neat solution: visible flocculation/precipitation at 37° C.; type: physicochemical
Experimental: Various dilutions of ZLC are prepared to evaluate its efficiency in producing visible precipitates and/or flocculation, which can be delivered in situ onto an oral surface or into a dental opening, such as open tubules.
(§1) A neat solution of ZLC is prepared by 1), reacting 0.5 mole of ZnO powder with 1 mole of lysine HCl in 1 liter of water at room temperature for about 2 hours, and 2) collecting the supernatant through centrifugation followed by filtration using a 0.45 micron membrane. The neat solution has a zinc concentration of 2.39% by weight, and a pH of about 7.03.
(§2) Dilution experiment is conducted by mixing the neat solution with deionized water. The neat solution is diluted by 2×, 4×, 6×, 7×, 8×, 10×, 12×, 16×, 20×, 24×, 28×, and 32×, corresponding to initial zinc concentrations of 1.20%, 0.598%, 0.398%, 0.341%, 0.299%, 0.239%, 0.199%, 0.149%, 0.120%, 0.0996%, 0.0854%, 0.0747%, by weight, respectively. The diluted samples are kept at 37° C., and the rates at which flocculation/precipitation occurred are monitored.

[2] = Deposition/occlusion assay on dentine slices, confocal imaging; parameters: species or system human
Experimental: The deposition/occlusion assay is conducted using human dentine slices and the neat solution of Example 5. The dentine slices were prepared by cutting human tooth into thin dentine sections of about 800 microns in thickness, choosing a test side, sanding said test side using a sandpaper of about 600 grit, polishing said test side using a Buehler polishing cloth and 5 micron Buehler aluminum oxide, acid-etching said dentine section in 1% (by weight) citric acid solution for about 20 seconds, sonicating said dentine section for 10 minutes, and storing said dentine section in phosphate buffered saline (PBS, pH 7.4).
For treatment, the neat solution is diluted 16-fold with water, yielding a treatment solution with initial zinc concentration of about 0.149% by weight. The dentine section is immersed in the treatment solution for 1 hour at 37° C. The treated dentine section is then removed from the treatment solution, and rinsed 4 times, each time with 1 mL of PBS. The dentine section is then dried using a paper-based tissue and examined under confocal microscope in both XYZ and XYZ modes. Subsequent treatments are conducted in the same manner.
Dentine sections, as prepared in Example 6, are repeatedly treated with ZLC dilutions with initial zinc concentration of 0.0747% by weight. […] The dentine section is examined under the confocal microscope after each treatment.

[3] = Clarity of oral gel phase batches: absorbance at 610 nm (Lambda 25 UV/VIS), original and diluted; type: physicochemical; conditions: for Absorbance: 610 nm
Experimental: The clarity of samples with different actives is compared, and the precipitation characteristic of ZLC gel phase by dilution is evaluated. […] Zinc ion concentration in the following batches are all prepared at 0.5% (w/w) zinc level.
Lambda 25 UV/VIS Spectrometer (PerkinElmer) is used to obtain absorbance information for all samples in order to compare the clarity of gel phase between different actives. Absorbance is a logarithmic measure of the amount of light that is absorbed when passing through a substance. Since the particles in the gel absorb light, the more particles existing in solution, the more light absorbed by the gel. Thus, a small number of absorbance of a gel indicates a higher clarity. The absorbance is corrected by using deionized (DI) water as the blank solution under the light source wavelength of 610 nm.

[4] = pH of ZLC neat solution and final diluted samples; type: physicochemical; conditions: neat solution, zinc 2.39% by weight
Experimental: as §1, §2
pH values of final diluted samples are suitable for oral care applications. […] These pH values were well within the range of 5.5 to 10, which defines the suitable range for oral care formulations.

[5] = pH of oral gel phase batches, original and diluted; type: physicochemical; conditions: original gel phase batch with the named active
[6] = Turbidity (percent transmission, TurbiScan) of mouthwash batches, original and diluted; type: physicochemical; conditions: zinc 1.01 wt %
Experimental: Four 500 g mouthwash batches which contain NaF, ZLC, ZnCl2 and ZnO as active ingredient are formulated with the ingredients shown in Table 1. The objective of this study is to compare the clarity of samples with different actives. Turbidity is evaluated by the percent transmission of light through the solution as measured by a TurbiScan® dispersion stability analyzer. The higher the percent transmission, the more transparent the composition. […] The concentration of zinc ions in ZLC solution is 25300 ppm obtained by ICP (Inductively Coupled Plasma) analysis, which corresponds to approximately 17% weight of ZLC actives in the solution. Zinc ion concentration in all batches is controlled to same level, i.e., 1.01 wt %. Among the four batches, the one that has ZnO as active appears milk white, with 0% transmission, while the other three samples are as clear as the deionized water (Table 2).
All original mouthwash batches are diluted into 2 fold, 4 fold, 8 fold, 16 fold and 32 fold. Turbidity measurements are performed after all solutions are prepared and well shaken. The turbidity data of the samples are shown in Table 3, 4, 5 and 6, for the dilutions of mouthwash containing NaF, ZLC, ZnCl2 and ZnO respectively.

[7] = initial zinc 0.0747% (32-fold dilution), 10 minutes at 37° C. each
[8] = neat solution diluted 16-fold, zinc about 0.149%, 1 hour at 37° C. each
[9] = gel phase batch, 8 fold dilution
[10] = gel phase batch, 16 fold dilution
[11] = original gel phase batch with the named active
[12] = original gel phase batch with the named active, DI water blank, 0.5% (w/w) zinc
[13] = gel phase batch, 2 fold dilution
[14] = gel phase batch, 4 fold dilution
[15] = gel phase batch, 32 fold dilution

| Molecule | Absorbance [3, 9] | Absorbance [3, 10] | Appearance / dissolution of active in gel phase [3, 11] | Absorbance [3, 12] | pH [5] | Absorbance [3, 13] | Absorbance [3, 14] | Absorbance [3, 15] | also measured |
| --- | --- | --- | --- | --- | --- | --- | --- | --- | --- |
| [Zn(C6H14N2O2)2Cl]^+Cl^− [ZLC] | 0.1860 | 0.1336 | homogenous solution | 0.1765 | 7.37 |  |  |  | Flocculation observation two hours after mixing ([1]; additional sample with initial zinc concentration 0.299%): presence of flocculation; Flocculation/precipitation observation after a total of 19 hours ([1]; all samples except initial zinc concentration 1.20%): flocculation and/or precipitation can be observed; Time to some visible flocculation after mixing stock solution with water ([1]; dilutions with initial zinc concentrations 0.149% and 0.199%): ≤ 30 min; Flocculation observation one and a half hours after mixing ([1]; dilutions with initial zinc concentrations between 0.0747% and 0.239%): visible flocculation; Flocculation observation one hour from mixing ([1]; dilutions with initial zinc concentrations between 0.0854% and 0.239%): visible flocculation; Relative amount of precipitate after a total of 19 hours ([1]; initial zinc concentrations between 0.0747% and 0.239%): the most precipitates; Deposition by confocal imaging after 4 consecutive treatments [2, 7]: significant surface deposition; Deposition/occlusion by confocal imaging after 12 consecutive treatments [2, 7]: complete surface coverage; Visible precipitation during treatment ([2]; initial zinc 0.0747%, 10 minutes at 37° C.): no precipitation is observed by naked eyes; Deposition/occlusion by confocal imaging, first treatment ([2]; neat solution diluted 16-fold, zinc about 0.149%, 1 hour at 37° C.): noticeable deposition; Deposition/occlusion by confocal imaging, second treatment [2, 8]: complete surface coverage, including blocking of substantially all tubule openings; Deposition/occlusion by confocal imaging, third treatment [2, 8]: complete surface coverage and complete blocking of tubule openings; Thickness of surface deposits, second treatment [2, 8]: ≥ 10 microns; Thickness of surface deposits, third treatment [2, 8]: ≥ 25 microns; pH [4]: about 7.03 |
| [Cl-].[Cl-].[Zn+2] [ZnCl2] | 0.1701 | 0.0570 | cloudy | 0.9204 | 5.25 | 0.7315 | 0.3700 | 0.0280 |  |
| [F-].[Na+] [NaF, Sodium Fluoride] | 0.0107 | 0.0075 |  | 0.0344 | 7.63 | 0.0106 | 0.0104 | 0.0137 |  |
| [O]=[Zn] [ZnO] | 2.1883 | 1.8638 | not dissolved | 2.4626 | 8.30 | 2.4630 | 2.5340 | 1.0492 | Appearance / clarity of mouthwash batch ([6]; original mouthwash batch with the named active): milk white; Turbidity (% Transmission) ([6]; original mouthwash batch, undiluted): 0% |
